Assay results reported in patent US20060111305A1, “Metabolites of certain [1,4]diazepino[6,7,1-ij]quinoline derivatives and methods of preparation and use thereof” (Wyeth, priority 2004, published 2006).
Like-named read-outs stand apart in the source and are kept apart here.

Columns and labels:
[1] = Rat urinary excretion and metabolite profiles after single oral 5 mg/kg [14C]DCDQ; format: in vivo, Sprague-Dawley rats; details: oral 5 mg/kg, mean n = 3
Experimental: At sacrifice, blood samples were collected by cardiac puncture into tubes containing EDTA as the anticoagulant and placing them on ice. Aliquots of 50 μL were removed for combustion and determination of radioactivity content. Plasma was immediately obtained from the remaining blood by centrifugation at 4° C. Brains were excised after perfusion with 50 mL of chilled sterile saline. Urine samples were collected on dry ice at intervals of 0-8 and 8-24 hour post-dosing. Feces were collected at intervals of 0-8 and 8-24 hr post-dosing at room temperature and were homogenized as described previously. The biological specimens and aliquots of the dosing solution at pre- and post-dose were stored at approximately −70° C. until analyzed.
Plasma (20 μL) and urine (50 μL) aliquots were analyzed for radioactivity concentrations. Radioactivity determinations of dose, plasma and urine were made with a Tri-Carb Model 3100 TR/LL liquid scintillation counter (LSC) (Perkin Elmer) using 10 mL of Ultima Gold as the scintillation fluid.
Urine was analyzed for radioactivity concentration as and analyzed for metabolite profiles by direct injection onto the HPLC column. LC/MS analyses for metabolite identification were also carried out with urine samples.
(§1) A Waters model 2690 HPLC system (Waters Corp., Milford, Mass.) with a built-in autosampler was used for analysis. Separations were accomplished on a Phenomenex Luna C18(2) column (150×2.0 mm, 5 μm) (Phenomenex, Torrance, Calif.). The sample chamber of the autosampler was maintained at 4° C., while the column was at ambient temperature of about 20° C. A variable wavelength UV detector set to monitor 250 nm and a Flo-One β Model A525 radioactivity detector described above were used for data acquisition. The HPLC mobile phase consisted of 10 mM ammonium acetate, pH 4.5 (A) and methanol (B), and was delivered at 0.2 mL/min. Chromatographic condition A was used for dose analysis, while condition B was used for analysis of urine and plasma, brain and fecal extracts.

[2] = Dog plasma metabolite profiles after single 15 mg/kg oral capsule of [14C]DCDQ; format: in vivo, beagle dogs; details: for concentration at 2 h / concentration at 4 h / concentration at 8 h / concentration at 24 h / concentration at 48 h: male, beagle, dog, plasma, oral, 15 mg/kg, read-out: Estimated plasma concentration in dogs
Experimental: (§2) For plasma profiles, a TopCount NXT radiometric microplate reader (Perkin Elmer) was used to analyze the radioactivity in collected HPLC fractions. The limit of detection by TopCount was about 1 ng equivalent/mL. A Flo-One β Model A525 radioactivity detector (Perkin Elmer) with a 250 μL LQTR flow cell was used to acquire data for urine and fecal samples. The flow rate of Ultima Flow M scintillation fluid was 1 mL/min, providing a mixing ratio of scintillation cocktail to mobile phase of 5:1. The limits of detection by Flo-One detector were about 200 ng equivalents/mL for urine and 12 ng equivalents/g for feces.
Plasma samples were analyzed for metabolite profiles by HPLC. Aliquots of plasma were mixed with two volumes of cold methanol containing 0.1% trifluoroacetic acid (TFA), placed on ice for about 2 minutes and then centrifuged. The supernatant fluid was transferred to a clean tube and evaporated at 22° C. under nitrogen in a Zymark TurboVap LV (Caliper Life Sciences, Hopkinton, Mass.) to a volume of about 0.3 mL. The residue was centrifuged, the supernatant volume measured and extraction efficiency determined by analysis of duplicate 20 μL aliquots for radioactivity. A 200 μL aliquot of the supernatant was injected onto the HPLC column and the effluent was collected at 20 second intervals into 96-well Lumaplates (Perkin Elmer). The plates were dried overnight in an oven at 40° C. and analyzed by a TopCount. Plasma extracts were also analyzed by LC/MS.
as §1, with “detector” for “detector described above”, “acetonitrile” for “methanol”

[3] = Dog urinary excretion and metabolite profiles after oral capsule of [14C]DCDQ; format: in vivo, beagle dogs
Experimental: Blood samples were collected from the jugular vein at 2, 4, 8, 24 and 48 hour after dose administration into tubes containing potassium EDTA as the anticoagulant and then placed on ice. Aliquots of 50 μL were removed for combustion and determination of radioactivity content. Plasma was immediately obtained from the remaining blood by centrifugation at 4° C. Urine samples were collected into tubes on dry ice at intervals of 0-8, 8-24 and 24-48 hour post-dose. Fecal samples were collected at intervals of 0-8, 8-24 and 24-48 hour post-dose at room temperature, and were homogenized. The biological specimens were stored at approximately −70° C. until analysis.
as §2
Urine was analyzed for radioactivity concentration and analyzed by HPLC with radioactivity flow detection for metabolite profiles by direct injection to the HPLC column. LC/MS analyses for metabolite identification were also carried out with urine samples.
as §1, with “detector” for “detector described above”, “acetonitrile” for “methanol”

[4] = Metabolites of DCDQ identified in dogs by LC/MS analysis (Table 26); format: in vivo, beagle dogs; details: P = plasma, U = urine, B = brain, F = feces
Description: An Agilent Model 1100 HPLC system (Agilent Technologies, Palo Alto, Calif.) including an autosampler and diode array UV detector was used for LC/MS analysis. The UV detector was set to monitor 200 to 400 nm. For selected LC/MS analysis, radiochromatograms were acquired using a β-Ram model 3 radioactivity flow detector (IN/US Systems Inc., Tampa, Fla.) equipped with a solid scintillant flow cell. LC conditions were the same as the condition B described above.
The mass spectrometer used for metabolite characterization was a Micromass Q-TOF-2 quadrupole time-of-flight hybrid mass spectrometer (Waters). The mass spectrometer was equipped with an electrospray ionization (ESI) interface and operated in the positive ionization mode. Collision energy settings of 5 and 30 eV were used for full MS and MS/MS scans, respectively. Settings for the mass spectrometer are listed below.

Row | Chromatographic distribution of radioactivity in male rat urine ([1]; 0-8 hr) [%] | Percentage of dose for urinary metabolites in rats ([1]; 0-8 hr) [%] | Percentage of dose for urinary metabolites in rats ([1]; 0-24 hr) [%] | Chromatographic distribution of radioactivity in male rat urine ([1]; 8-24 hr) [%] | Percentage of dose for urinary metabolites in rats ([1]; 8-24 hr) [%] | Chromatographic distribution of radioactivity in dog plasma ([2]; 2 hr, dog 2) [%] | Chromatographic distribution of radioactivity in dog plasma ([2]; 4 hr, dog 1) [%] | Chromatographic distribution of radioactivity in dog plasma ([2]; 4 hr, dog 2) [%] | Chromatographic distribution of radioactivity in dog plasma ([2]; 24 hr, dog 1) [%] | Chromatographic distribution of radioactivity in dog plasma ([2]; 24 hr, dog 2) [%] | Estimated plasma concentration in dogs ([2]; 48 hr, dog 3) | concentration at 4 h ([2]; 4 hr, dog 1) [ng/mL] | concentration at 4 h ([2]; 4 hr, dog 2) [ng/mL] | concentration at 24 h ([2]; 24 hr, dog 2) [ng/mL] | Chromatographic distribution of radioactivity in dog urine ([3]; 24-48 hr, Mean) [%] | Chromatographic distribution of radioactivity in dog urine ([3]; 24-48 hr, dog 1) [%] | Chromatographic distribution of radioactivity in dog urine ([3]; 24-48 hr, dog 2) [%] | Chromatographic distribution of radioactivity in dog urine ([3]; 24-48 hr, dog 3) [%] | Chromatographic distribution of radioactivity in dog urine ([3]; 24-48 hr, dog 4) [%] | Matrix [4] | Compound | other results
1 | 26.9 | 8.67 | 16.4 | 22.5 | 7.74 | 2.6 | 8.0 | 4.9 | 6.8 | 2.1 | BQL | 40 | 80.9 | 23 | 5.7 | 4.4 | 7.6 | 7.6 | 3.2 | P, U | OC1CN2C[C@@H]3CCC[C@@H]3c3cccc(c32)CN1 (stereo partly drawn) [Metabolite M1, hydroxy DCDQ] | Chromatographic distribution of radioactivity in dog plasma ([2]; 2 hr, dog 1): 8.4%; Chromatographic distribution of radioactivity in dog plasma ([2]; 8 hr, dog 1): 8.0%; Chromatographic distribution of radioactivity in dog plasma ([2]; 8 hr, dog 2): 4.7%; Chromatographic distribution of radioactivity in dog plasma ([2]; 8 hr, dog 3): 9.7%; Chromatographic distribution of radioactivity in dog plasma ([2]; 24 hr, dog 3): 6.4%; Chromatographic distribution of radioactivity in dog plasma ([2]; 48 hr, dog 1): 12%; Chromatographic distribution of radioactivity in dog plasma ([2]; 48 hr, dog 2): 6.7%; concentration at 2 h ([2]; 2 hr, dog 1): 30.1 ng/mL; concentration at 2 h ([2]; 2 hr, dog 2): 32.9 ng/mL; concentration at 8 h ([2]; 8 hr, dog 1): 43.3 ng/mL; concentration at 8 h ([2]; 8 hr, dog 2): 61.9 ng/mL; concentration at 8 h ([2]; 8 hr, dog 3): 24.8 ng/mL; concentration at 24 h ([2]; 24 hr, dog 1): 104 ng/mL; concentration at 24 h ([2]; 24 hr, dog 3): 125 ng/mL; concentration at 48 h ([2]; 48 hr, dog 1): 58 ng/mL; concentration at 48 h ([2]; 48 hr, dog 2): 44.7 ng/mL; Chromatographic distribution of radioactivity in dog urine ([3]; 8-24 hr, Mean): 6.6%; Chromatographic distribution of radioactivity in dog urine ([3]; 8-24 hr, dog 1): 8.3%; Chromatographic distribution of radioactivity in dog urine ([3]; 8-24 hr, dog 2): 4.7%; Chromatographic distribution of radioactivity in dog urine ([3]; 8-24 hr, dog 3): 6.7%
2 | 9.51 | 3.16 | 5.09 | 5.83 | 1.94 | 8.0 | 6.6 | 12 | – | 5.0 | BQL | 33.1 | 192 | 55.3 | 22 | 25 | 18 | 22 | 21 | P, U, F | OC1[C@@H]2CCC[C@@H]2c2cccc3c2N1CCNC3 (stereo partly drawn) [Metabolite M2, hydroxy DCDQ] | Estimated plasma concentration in dogs ([2]; 2 hr, dog 1): BQL^b; Estimated plasma concentration in dogs ([2]; 8 hr, dog 1): BQL; Estimated plasma concentration in dogs ([2]; 8 hr, dog 2): BQL; Estimated plasma concentration in dogs ([2]; 8 hr, dog 3): BQL; Estimated plasma concentration in dogs ([2]; 24 hr, dog 1): BQL; Chromatographic distribution of radioactivity in dog plasma ([2]; 24 hr, dog 3): 7.0%; Estimated plasma concentration in dogs ([2]; 48 hr, dog 1): BQL; Estimated plasma concentration in dogs ([2]; 48 hr, dog 2): BQL; concentration at 2 h ([2]; 2 hr, dog 2): 99.5 ng/mL; concentration at 24 h ([2]; 24 hr, dog 3): 135 ng/mL; Chromatographic distribution of radioactivity in dog urine ([3]; 0-8 hr, dog no. not printed (dog 1 by footnote a)): 10%; Chromatographic distribution of radioactivity in dog urine ([3]; 8-24 hr, Mean): 24%; Chromatographic distribution of radioactivity in dog urine ([3]; 8-24 hr, dog 1): 21%; Chromatographic distribution of radioactivity in dog urine ([3]; 8-24 hr, dog 2): 26%; Chromatographic distribution of radioactivity in dog urine ([3]; 8-24 hr, dog 3): 26%
3 | 9.68 | 3.16 | 6.60 | 10.1 | 3.44 | – | 6.9 | 7.8 | 13 | 6.7 | BQL | 34.5 | 127 | 73.6 | 5.9 | 5.0 | 6.2 | 9.2 | 3.4 | P, U | O=C1CC[C@@H]2c3cccc4c3N(CCNC4)C[C@H]12 [Metabolite M7, 17-keto DCDQ] | Estimated plasma concentration in dogs ([2]; 2 hr, dog 1): BQL; Estimated plasma concentration in dogs ([2]; 2 hr, dog 2): BQL; Estimated plasma concentration in dogs ([2]; 8 hr, dog 1): BQL; Estimated plasma concentration in dogs ([2]; 8 hr, dog 2): BQL; Estimated plasma concentration in dogs ([2]; 8 hr, dog 3): BQL; Estimated plasma concentration in dogs ([2]; 24 hr, dog 3): BQL; Estimated plasma concentration in dogs ([2]; 48 hr, dog 1): BQL; Estimated plasma concentration in dogs ([2]; 48 hr, dog 2): BQL; concentration at 24 h ([2]; 24 hr, dog 1): 202 ng/mL
